Test results: patent publication US8048862B2, “Macrocyclic inhibitors of hepatitis C virus replication” (priority 2008, dated 2011)
Where two headings read alike, the source gives them in different places.

Key:
NS3/NS4 complexes = NS3/NS4 complexes (Hepatitis C virus genotype 1a, UniProt P27958); test: NS3/NS4 inhibition activity (IC50); assay type: biochemical
Text: NS3-NS4 inhibition activity can be determined using known assay methods. For example, NS3/NS4 complexes may be formed and inhibitory concentrations of test compounds determined as described in U.S. Patent Application Publication Number 2007/0054842 paragraph numbers 1497-1509, which is incorporated herein by reference in its entirety. Similarly, hepatitis C replicon EC50 may be determined using known assay methods such as described in U.S. Patent Application Publication Number 2007/0054842 paragraph numbers 1510-1515. Assays may be conducted at ambient temperature (23° C.) in assay buffer containing 50 mM Tris-HCl, pH 7.5, 15% glycerol, 0.6 mM Lauryldimethylamine Oxide (LDAO), 25 μM NS4A peptide, and 10 mM Dithiothreitol (DTT).

hepatitis C replicon = hepatitis C replicon EC50; assay type: cell-based; settings: Hepatitis C virus
Text: NS3-NS4 inhibition activity can be determined using known assay methods.

[1] = Table 2, hepatitis C replicon, read-out: EC50
[2] = Table 3, hepatitis C replicon, read-out: EC50

Chain of NS3/NS4 complexes (P27958 1027-1657): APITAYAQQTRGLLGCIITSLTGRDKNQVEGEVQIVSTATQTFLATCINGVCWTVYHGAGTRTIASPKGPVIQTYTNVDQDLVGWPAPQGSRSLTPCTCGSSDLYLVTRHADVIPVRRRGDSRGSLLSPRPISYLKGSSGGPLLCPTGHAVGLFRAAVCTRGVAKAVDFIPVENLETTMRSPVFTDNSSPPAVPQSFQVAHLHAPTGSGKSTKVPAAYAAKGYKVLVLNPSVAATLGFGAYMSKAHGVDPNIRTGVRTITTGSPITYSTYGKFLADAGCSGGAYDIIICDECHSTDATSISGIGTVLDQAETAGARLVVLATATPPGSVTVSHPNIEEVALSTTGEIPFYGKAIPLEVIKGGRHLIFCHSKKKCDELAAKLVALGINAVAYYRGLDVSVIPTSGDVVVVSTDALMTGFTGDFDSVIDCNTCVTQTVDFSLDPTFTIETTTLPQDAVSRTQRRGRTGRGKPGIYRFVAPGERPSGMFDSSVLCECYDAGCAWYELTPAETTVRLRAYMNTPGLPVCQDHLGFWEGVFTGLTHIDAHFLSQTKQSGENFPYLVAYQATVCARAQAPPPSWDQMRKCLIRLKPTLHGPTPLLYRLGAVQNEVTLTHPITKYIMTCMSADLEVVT
Chain of NS3/NS4 complexes (P27958 1658-1711): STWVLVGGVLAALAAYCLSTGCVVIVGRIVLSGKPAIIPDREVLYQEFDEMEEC

Row | Structure (SMILES) | IC50 (NS3/NS4 complexes; Table 3, read-out: IC50) | IC50 (NS3/NS4 complexes; Table 2, read-out: IC50) | EC50 (hepatitis C replicon; [1]) | EC50 (hepatitis C replicon; [2]) | also measured
1 | CC(C)(C)OC(=O)N[C@H]1CCCCC/C=C\[C@@H]2C[C@@]2(C(=O)NS(=O)(=O)C2(C)CC2)NC(=O)[C@@H]2C[C@@H](Oc3nc4ccccc4[nH]3)CN2C1=O [Compound 1079] | < 10 nM |  |  |  | EC50 (hepatitis C replicon): > 100 nM
2 | COc1ccc2c(O[C@@H]3C[C@H]4C(=O)N[C@]5(C(=O)O)C[C@H]5/C=C\CCCCC[C@H](Nc5ccccc5)C(=O)N4C3)cc(-c3nc(C(C)C)cs3)nc2c1C [Compound 449] |  | < 10 nM | 10 to 75 nM |  | 
3 | CC(C)(C)OC(=O)N[C@H]1CCCCC/C=C\[C@@H]2C[C@@]2(C(=O)NS(=O)(=O)C2(C)CC2)NC(=O)[C@@H]2C[C@@H](Oc3nc4ccccc4o3)CN2C1=O [Compound 1028] | < 10 nM |  |  | 10 to 100 nM | 
4 | COc1ccc2c(O[C@@H]3C[C@H]4C(=O)N[C@]5(C(=O)NS(=O)(=O)C6(C)CC6)C[C@H]5/C=C\CCCCC[C@H](Nc5cccc(C(F)(F)F)c5)C(=O)N4C3)cc(-c3ccccc3)nc2c1 [Compound 229] |  | < 10 nM | < 10 nM |  | 
5 | Cc1ccc2nc(O[C@@H]3C[C@H]4C(=O)N[C@]5(C(=O)NS(=O)(=O)C6(C)CC6)C[C@H]5/C=C\CCCCC[C@H](NC(=O)OC(C)(C)C)C(=O)N4C3)sc2c1 [Compound 1014] | < 10 nM |  |  | < 10 nM | 
6 | COc1ccc2oc(O[C@@H]3C[C@H]4C(=O)N[C@]5(C(=O)NS(=O)(=O)C6CC6)C[C@H]5/C=C\CCCCC[C@H](NC(=O)OC(C)(C)C)C(=O)N4C3)nc2c1 [Compound 1035] | < 10 nM |  |  | > 100 nM | 
7 | CNC(=O)c1cccc(N[C@H]2CCCCC/C=C\[C@@H]3C[C@@]3(C(=O)NS(=O)(=O)C3(C)CC3)NC(=O)[C@@H]3C[C@@H](Oc4cc(-c5nc(C(C)C)cs5)nc5c(C)c(OC)ccc45)CN3C2=O)c1 [Compound 474] |  | < 10 nM | < 10 nM |  | 
8 | CC1(S(=O)(=O)NC(=O)[C@@]23C[C@H]2/C=C\CCCCC[C@H](Nc2cccc(F)c2)C(=O)N2C[C@H](OC(=O)N4Cc5cccc(F)c5C4)C[C@H]2C(=O)N3)CC1 [Compound 1117] | < 10 nM |  |  | 10 to 100 nM | 
9 | CC1(S(=O)(=O)NC(=O)[C@@]23C[C@H]2/C=C\CCCCC[C@H](Nc2ccc(C(F)(F)F)c(F)c2)C(=O)N2C[C@H](OC(=O)N4Cc5cccc(F)c5C4)C[C@H]2C(=O)N3)CC1 [Compound 1123] | < 10 nM |  |  | > 100 nM | 
10 | CC1(S(=O)(=O)NC(=O)[C@@]23C[C@H]2/C=C\CCCCC[C@H](Nc2cc(F)cc(F)c2)C(=O)N2C[C@H](Oc4nc5ccccc5s4)C[C@H]2C(=O)N3)CC1 [Compound 328] |  | < 10 nM | 10 to 75 nM |  | 
11 | CC(C)n1c(O[C@@H]2C[C@H]3C(=O)N[C@]4(C(=O)NS(=O)(=O)N(C)C)C[C@H]4/C=C\CCCCC[C@H](NC(=O)OC(C)(C)C)C(=O)N3C2)nc2cc(F)ccc21 [Compound 1133] | < 10 nM |  |  | < 10 nM | 
12 | Cc1cccc2nc(O[C@@H]3C[C@H]4C(=O)N[C@]5(C(=O)NS(=O)(=O)N(C)C)C[C@H]5/C=C\CCCCC[C@H](NC(=O)OC(C)(C)C)C(=O)N4C3)n(C(C)C)c12 [Compound 1138] | < 10 nM |  |  | < 10 nM | 
13 | COc1ccc2c(O[C@@H]3C[C@H]4C(=O)N[C@]5(C(=O)NS(=O)(=O)C6(C)CC6)C[C@H]5/C=C\CCCCC[C@H](Nc5ccc(F)c(F)c5)C(=O)N4C3)cc(-c3nc(C(C)C)cs3)nc2c1C [Compound 473] |  | < 10 nM | < 10 nM |  | 
14 | CC1(S(=O)(=O)NC(=O)[C@@]23C[C@H]2/C=C\CCCCC[C@H](Nc2ccc(OC(F)(F)F)cc2)C(=O)N2C[C@H](OC(=O)N4Cc5cccc(F)c5C4)C[C@H]2C(=O)N3)CC1 [Compound 1119] | < 10 nM |  |  | 10 to 100 nM | 
15 | COc1ccc2c(O[C@@H]3C[C@H]4C(=O)N[C@]5(C(=O)NS(=O)(=O)C6CC6)C[C@H]5/C=C\CCCCC[C@H](Nc5cccc(F)c5)C(=O)N4C3)cc(-c3nc(C(C)C)cs3)nc2c1C [Compound 411] |  | < 10 nM | < 10 nM |  | 
16 | O=C1N[C@]2(C(=O)O)C[C@H]2/C=C\CCCCC[C@H](Nc2ccccc2)C(=O)N2C[C@H](Oc3nc4ccccc4s3)C[C@@H]12 [Compound 101] |  | 75 to 500 nM | > 500 nM |  | 
17 | COc1ccc2c(O[C@@H]3C[C@H]4C(=O)N[C@]5(C(=O)NS(=O)(=O)C6CC6)C[C@H]5/C=C\CCCCC[C@H](Nc5ccc(C(F)(F)F)cc5)C(=O)N4C3)cc(-c3nc(C(C)C)cs3)nc2c1C [Compound 446] |  | < 10 nM | < 10 nM |  | 

Row | Structure (SMILES) | IC50 (NS3/NS4 complexes; Table 3, read-out: IC50) | IC50 (NS3/NS4 complexes; Table 2, read-out: IC50) | EC50 (hepatitis C replicon; [1]) | EC50 (hepatitis C replicon; [2]) | also measured
18 | CC(C)(C)c1cccc(N[C@H]2CCCCC/C=C\[C@@H]3C[C@@]3(C(=O)NS(=O)(=O)C3(C)CC3)NC(=O)[C@@H]3C[C@@H](OC(=O)N4Cc5cccc(F)c5C4)CN3C2=O)c1 [Compound 1126] | < 10 nM |  |  | < 10 nM | 
19 | CC1(S(=O)(=O)NC(=O)[C@@]23C[C@H]2/C=C\CCCCC[C@H](NCc2ccccc2)C(=O)N2C[C@H](Oc4nc5ccccc5s4)C[C@H]2C(=O)N3)CC1 [Compound 253] |  | < 10 nM | 10 to 75 nM |  | 
20 | CC1(S(=O)(=O)NC(=O)[C@@]23C[C@H]2/C=C\CCCCC[C@H](Nc2ccccc2)C(=O)N2C[C@H](Oc4nc5ccccc5nc4-c4cccs4)C[C@H]2C(=O)N3)CC1 [Compound 486] |  | < 10 nM | 10 to 75 nM |  | 
21 | Cc1ccccc1N[C@H]1CCCCC/C=C\[C@@H]2C[C@@]2(C(=O)NS(=O)(=O)C2(C)CC2)NC(=O)[C@@H]2C[C@@H](OC(=O)N3Cc4cccc(F)c4C3)CN2C1=O [Compound 1114] | < 10 nM |  |  | 10 to 100 nM | 
22 | COc1ccc2c(O[C@@H]3C[C@H]4C(=O)N[C@]5(C(=O)NS(=O)(=O)C6CC6)C[C@H]5/C=C\CCCCC[C@H](Nc5ccccc5)C(=O)N4C3)cc(-c3nc(C(C)C)cs3)nc2c1C [Compound 407] |  | < 10 nM | < 10 nM |  | 
23 | CC1(S(=O)(=O)NC(=O)[C@@]23C[C@H]2/C=C\CCCCC[C@H](Nc2cccc(F)c2)C(=O)N2C[C@H](Oc4nccc5ccccc45)C[C@H]2C(=O)N3)CC1 [Compound 243] |  | < 10 nM | 10 to 75 nM |  | 
24 | CC(C)(C)OC(=O)N[C@H]1CCCCC/C=C\[C@@H]2C[C@@]2(C(=O)NS(=O)(=O)C2(C)CC2)NC(=O)[C@@H]2C[C@@H](Oc3nc4ccccc4n3COCC[Si](C)(C)C)CN2C1=O [Compound 701] |  |  |  | 10 to 100 nM | IC50 (NS3/NS4 complexes; IC50, Table 3): < 10 nM
25 | CC(C)n1c(O[C@@H]2C[C@H]3C(=O)N[C@]4(C(=O)NS(=O)(=O)N(C)C)C[C@H]4/C=C\CCCCC[C@H](NC(=O)OC(C)(C)C)C(=O)N3C2)nc2c(F)cccc21 [Compound 1135] | < 10 nM |  |  | < 10 nM | 
26 | CC1(S(=O)(=O)NC(=O)[C@@]23C[C@H]2/C=C\CCCCC[C@H](Nc2ccc(C#N)cc2)C(=O)N2C[C@H](OC(=O)N4Cc5cccc(F)c5C4)C[C@H]2C(=O)N3)CC1 [Compound 1109] | < 10 nM |  |  | 10 to 100 nM | 
27 | CC(C)n1c(O[C@@H]2C[C@H]3C(=O)N[C@]4(C(=O)NS(=O)(=O)C5(C)CC5)C[C@H]4/C=C\CCCCC[C@H](Nc4ccccc4)C(=O)N3C2)nc2ccc(F)cc21 [Compound 461] |  | < 10 nM | 10 to 75 nM |  | 
28 | CC1(S(=O)(=O)NC(=O)[C@@]23C[C@H]2/C=C\CCCCC[C@H](Nc2cccc(C(N)=O)c2)C(=O)N2C[C@H](OC(=O)N4Cc5cccc(F)c5C4)C[C@H]2C(=O)N3)CC1 [Compound 1101] | < 10 nM |  |  | 10 to 100 nM | 
29 | Cc1ccc2nc(O[C@@H]3C[C@H]4C(=O)N[C@]5(C(=O)NS(=O)(=O)C6(C)CC6)C[C@H]5/C=C\CCCCC[C@H](Nc5cccc(C(F)(F)F)c5)C(=O)N4C3)sc2c1 [Compound 227] |  | < 10 nM | 75 to 500 nM |  | 
30 | Cc1ccc2nc(O[C@@H]3C[C@H]4C(=O)N[C@]5(C(=O)NS(=O)(=O)C6CC6)C[C@H]5/C=C\CCCCC[C@H](NC(=O)OC(C)(C)C)C(=O)N4C3)sc2c1 [Compound 1015] | < 10 nM |  |  | < 10 nM | 
31 | CC1(S(=O)(=O)NC(=O)[C@@]23C[C@H]2/C=C\CCCCC[C@H](Nc2cc(F)cc(C(F)(F)F)c2)C(=O)N2C[C@H](Oc4nc5ccccc5o4)C[C@H]2C(=O)N3)CC1 [Compound 353] |  | < 10 nM | 75 to 500 nM |  | 
32 | COc1ccc2c(O[C@@H]3C[C@H]4C(=O)N[C@]5(C(=O)NS(=O)(=O)C6(C)CC6)C[C@H]5/C=C\CCCCC[C@H](NC(=O)OC(C)(C)C)C(=O)N4C3)cc(-c3nc(C(C)C)cs3)nc2c1C [Compound 1078] | < 10 nM |  |  | < 10 nM | 
33 | CC(C)(C)OC(=O)N[C@H]1CCCCCCC[C@@H]2C[C@@]2(C(=O)NS(=O)(=O)C2(C)CC2)NC(=O)[C@@H]2C[C@@H](OC(=O)N3Cc4cccc(F)c4C3)CN2C1=O [Compound 1081] | < 10 nM |  |  | < 10 nM | 
34 | O=C1N[C@]2(C(=O)O)C[C@H]2/C=C\CCCCC[C@H](Nc2cccc(C(F)(F)F)c2)C(=O)N2C[C@H](Oc3nc4ccccc4s3)C[C@@H]12 [Compound 110] |  | 10 to 75 nM | > 500 nM |  | 
